Test results from publication PMC4992173, “Divergent synthesis and identification of the cellular targets of deoxyelephantopins” (Nature Communications, 2016).

Test system: MCF7 cells
Test: Caspase activation (FITC-VAD-FMK), Annexin V and propidium iodide staining
Type: cell-based, human
Details: 20 μM, 8 h
Protocol: We began our biological investigations by assaying the cytotoxicity of natural deoxyelephantopin (DEP) and its unnatural analogues in four different cancer cell lines (Fig. 5a, Supplementary Figs 6–8).
Figure 5 Assessing the cytotoxicity of deoxyelephantopin (DEP) and analogues. (a) Cell viability measurements in four different cancer cell lines. Cells were treated with compounds for 3 days, the nuclei were stained with DAPI and counted (EC50 values±s.d. shown; n=3). **P<0.005 and ***P<0.0005 by two-sided Student's t-test. (b) Detection of caspase activation and apoptosis in MCF7 cells using FITC-VAD-FMK fluorescent probe (top) or Annexin V staining (bottom). The cells were treated with 1 μM staurosporine (positive control) or 20 μM deoxyelephantopin for 8 h. Confocal microscopy images are shown. EC50, effector concentration for half-maximum response. Scale bars, 30μm. […]
Biological materials. […] Protein concentration was determined using the Bradford assay (Bio-Rad).
Cell culture and preparation of lysates. […] Cells were lysed by sonication to form cell lysates and protein concentration was determined using the Bradford […]
’ cells/mL and HeLa: 1 ’ cells/mL) in a 96-well plate and allowed to attach overnight. […] Cells were imaged using a SpectraMax i3 plate reader equipped with a SpectraMax MiniMax imaging cytometer (Molecular Devices). […]
Caspase activity labeling for fluorescence cell imaging. […]

## C=C(C)C(=O)O[C@H]1CC2=C[C@@H](C/C(C)=C/[C@H]3OC(=O)C(=C)[C@H]13)OC2=O [deoxyelephantopin]
  cause of cell death (FITC-VAD-FMK, Annexin-V-FLUOS staining): caspase-mediated apoptosis
  necrotic death (propidium iodide staining): did not indicate any significant necrotic death
